Reference: patent US9663526B2, “Aminopyrimidinyl compounds” (Pfizer Inc., priority 2014, dated 2017)
Where two headings read alike, the source gives them in different places.

Experiments:
[1] = target: recombinant human kinase domain of JAK3 (Homo sapiens (Human), UniProt P52333); assay: JAK Caliper enzyme assay at 1 mM ATP (JAK3); assay type: biochemical; settings: 1 mM ATP; read-out: IC50 (nM) JAK3;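 also: microfluidic mobility-shift readout of synthetic peptide phosphorylation, percent product converted from peak heights, normalized to DMSO-only wells as uninhibited baseline, room temperature incubation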
recombinant human kinase domain of JAK3, sequence (P52333 822-1111): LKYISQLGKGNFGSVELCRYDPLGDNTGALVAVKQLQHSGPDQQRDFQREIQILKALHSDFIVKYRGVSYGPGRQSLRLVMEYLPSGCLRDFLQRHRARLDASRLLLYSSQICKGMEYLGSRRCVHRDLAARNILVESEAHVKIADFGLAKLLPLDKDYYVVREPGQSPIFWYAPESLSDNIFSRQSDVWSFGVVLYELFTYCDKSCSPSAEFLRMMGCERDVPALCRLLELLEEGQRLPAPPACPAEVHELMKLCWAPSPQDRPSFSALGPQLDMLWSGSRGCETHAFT

[2] = target: recombinant human kinase domain of JAK2 (Homo sapiens (Human), UniProt O60674); assay: JAK Caliper enzyme assay at 1 mM ATP (JAK2); assay type: biochemical;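 also: microfluidic mobility-shift read-out of fluorescent synthetic peptide phosphorylation, percent product converted from peak heights, room temperature, DMSO-only wells as uninhibited baseline, inhibition curve fit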
recombinant human kinase domain of JAK2, sequence (O60674 849-1124): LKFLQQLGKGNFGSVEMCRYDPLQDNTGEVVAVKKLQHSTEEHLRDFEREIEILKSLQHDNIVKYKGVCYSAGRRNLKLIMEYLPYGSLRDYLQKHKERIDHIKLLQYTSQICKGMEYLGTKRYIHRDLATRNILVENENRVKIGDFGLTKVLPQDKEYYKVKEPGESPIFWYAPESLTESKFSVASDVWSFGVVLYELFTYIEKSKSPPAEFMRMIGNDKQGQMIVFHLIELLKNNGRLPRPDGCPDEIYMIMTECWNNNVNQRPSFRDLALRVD

[3] = system: interferon alpha signalling (TYK2 and JAK1), STAT3 phosphorylation; assay: Human whole blood INFα induced STAT3 phosphorylation assay; assay type: cell-based; settings: compound 60 minutes at 37° C., IFNα 5000 U/ml for 15 minutes, pSTAT3 in lymphocyte population by flow cytometry, read-out: HWB IFN alpha IC50;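 also: flow cytometry with anti-pSTAT3 staining, signal as percent-positive × mean fluorescence, baseline from unstimulated wells, 11-point dilution series, IC50 as inhibition of pSTAT3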
[4] = target: recombinant human kinase domain of TYK2 (Homo sapiens (Human), UniProt P29597); assay: JAK Caliper enzyme assay at 1 mM ATP (TYK2); assay type: biochemical; settings: 1 mM ATP; read-out: IC50 (nM) TYK2;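 also: microfluidic mobility-shift readout of synthetic peptide phosphorylation by TYK2, tuned to 20–30% conversion at room temperature, reaction stopped with EDTA, DMSO-only wells as uninhibited baseline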
recombinant human kinase domain of TYK2, sequence (P29597 897-1176): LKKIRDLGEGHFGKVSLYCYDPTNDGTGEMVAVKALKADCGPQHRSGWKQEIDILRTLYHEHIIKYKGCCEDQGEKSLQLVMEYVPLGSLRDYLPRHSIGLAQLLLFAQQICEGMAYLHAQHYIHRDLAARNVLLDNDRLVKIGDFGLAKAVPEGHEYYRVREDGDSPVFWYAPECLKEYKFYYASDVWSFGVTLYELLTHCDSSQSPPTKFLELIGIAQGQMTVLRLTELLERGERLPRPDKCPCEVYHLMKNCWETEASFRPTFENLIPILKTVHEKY

[5] = target: recombinant human kinase domain of JAK1 (Homo sapiens (Human), UniProt P23458); assay: JAK Caliper enzyme assay at 1 mM ATP (JAK1); assay type: biochemical;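 also: microfluidic mobility-shift readout of synthetic fluorescent peptide phosphorylation, percent product converted from peak height, inhibition relative to DMSO-only wells as uninhibited baseline, room temperature incubation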
recombinant human kinase domain of JAK1, sequence (P23458 875-1153): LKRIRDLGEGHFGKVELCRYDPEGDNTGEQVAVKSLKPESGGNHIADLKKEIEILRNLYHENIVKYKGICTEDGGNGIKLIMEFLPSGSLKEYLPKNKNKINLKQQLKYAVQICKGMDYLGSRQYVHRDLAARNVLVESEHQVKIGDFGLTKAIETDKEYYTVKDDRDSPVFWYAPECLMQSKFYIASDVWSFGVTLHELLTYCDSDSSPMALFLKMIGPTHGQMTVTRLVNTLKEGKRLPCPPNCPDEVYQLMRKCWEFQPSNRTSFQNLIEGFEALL

[6] = 1 mM ATP, read-out: IC50 (nM) JAK1

SMILES	IC50 [1]	IC50 [2]	IC50 [3]	IC50 [4]	IC50 [5, 6]	IC50 [5]
Cn1cc(Nc2nccc(N3C[C@H]4CC[C@@H](C3)N4C(=O)C3(F)CC3)n2)cn1 [Example 46, (1-fluorocyclopropyl)[(1R,5S)-3-{2-[(1-methyl-1H-pyrazol-4-yl)amino]pyrimidin-4-yl}-3,8-diazabicyclo[3.2.1]oct-8-yl]methanone]	4160 nM	526 nM	209 nM	84 nM	173 nM	
Cn1cc(Nc2nccc(N3C[C@H]4CC[C@@H](C3)N4C3(CC#N)CN(S(C)(=O)=O)C3)n2)cn1 [Example 83, {3-[(1R,5S)-3-{2-[(1-methyl-1H-pyrazol-4-yl)amino]pyrimidin-4-yl}-3,8-diazabicyclo[3.2.1]oct-8-yl]-1-(methylsulfonyl)azetidin-3-yl}acetonitrile]	1240 nM		85 nM			
CNC(=O)c1ncc(Nc2nccc(N3C[C@H]4CC[C@@H](C3)N4C(=O)[C@@H]3C[C@H]3C#N)n2)cc1C [Example 32, 5-({4-[(1R,5S)-8-{[(1R,2R)-2-cyanocyclopropyl]carbonyl}-3,8-diazabicyclo[3.2.1]oct-3-yl]pyrimidin-2-yl}amino)-N,3-dimethylpyridine-2-carboxamide]	> 10000 nM	140 nM	115 nM			
CNC(=O)c1ncc(Nc2nccc(N3C[C@H]4CC[C@@H](C3)N4C(=O)[C@H]3C[C@@H]3F)n2)cc1C [Example 44, 5-({4-[(1R,5S)-8-{[(1R,2S)-2-fluorocyclopropyl]carbonyl}-3,8-diazabicyclo[3.2.1]oct-3-yl]pyrimidin-2-yl}amino)-N,3-dimethylpyridine-2-carboxamide]	> 10000 nM	854 nM	562 nM		475 nM	
CNC(=O)c1ncc(Nc2nccc(N3C[C@H]4CC[C@@H](C3)N4C(=O)C3CC3)n2)cc1Cl [Example 30, 3-chloro-5-({4-[(1R,5S)-8-(cyclopropylcarbonyl)-3,8-diazabicyclo[3.2.1]oct-3-yl]pyrimidin-2-yl}amino)-N-methylpyridine-2-carboxamide]	> 10000 nM	2130 nM	653 nM	97 nM	1160 nM	
CCNC(=O)c1ccc(Nc2ncc(F)c(N3CC4CC(C3)N4C(=O)C(C)(C)F)n2)cc1C [Example 112, N-ethyl-4-({5-fluoro-4-[6-(2-fluoro-2-methylpropanoyl)-3,6-diazabicyclo[3.1.1]hept-3-yl]pyrimidin-2-yl}amino)-2-methylbenzamide]	> 10000 nM	3040 nM	775 nM	21 nM	4070 nM	
CCNC(=O)N1[C@@H]2CC[C@H]1CN(c1ccnc(Nc3cn[nH]c3)n1)C2 [Example 5, (1R,5S)—N-ethyl-3-[2-(1H-pyrazol-4-ylamino)pyrimidin-4-yl]-3,8-diazabicyclo[3.2.1]octane-8-carboxamide]	> 10000 nM	477 nM	105 nM			
Cn1cc(Nc2nccc(N3C[C@H]4CC[C@@H](C3)N4C3CN(S(C)(=O)=O)C3)n2)cn1 [Example 60, N-(1-methyl-1H-pyrazol-4-yl)-4-{(1R,5S)-8-[1-(methylsulfonyl)azetidin-3-yl]-3,8-diazabicyclo[3.2.1]oct-3-yl}pyrimidin-2-amine]	> 10000 nM	159 nM	103 nM	70 nM	36 nM	
CCNC(=O)c1ccc(Nc2nccc(N3CC4CC(C3)N4C(=O)C(F)(F)F)n2)cc1C [Example 115, N-ethyl-2-methyl-4-({4-[6-(trifluoroacetyl)-3,6-diazabicyclo[3.1.1]hept-3-yl]pyrimidin-2-yl}amino)benzamide]	> 10000 nM	3310 nM	234 nM	64 nM	3790 nM	
N#CCCN1[C@@H]2CC[C@H]1CN(c1ccnc(Nc3cn[nH]c3)n1)C2 [Example 79, 3-{(1R,5S)-3-[2-(1H-pyrazol-4-ylamino)pyrimidin-4-yl]-3,8-diazabicyclo[3.2.1]oct-8-yl}propanenitrile]	8420 nM	406 nM	65 nM	34 nM	38 nM	
Cc1cnc(Nc2ccc(OCCO)nc2)nc1N1C[C@H]2[C@@H](C)[C@@]2(NC(=O)[C@H]2C[C@@H]2C#N)C1 [Example 98, (1S,2S)-2-cyano-N-[(1S,5R,6R)-3-(2-{[6-(2-hydroxyethoxy)pyridin-3-yl]amino}-5-methylpyrimidin-4-yl)-6-methyl-3-azabicyclo[3.1.0]hex-1-yl]cyclopropanecarboxamide]	2600 nM	147 nM	246 nM		13 nM	
CNC(=O)c1ncc(Nc2nccc(N3C[C@H]4CC[C@@H](C3)N4Cc3ccno3)n2)cc1C [Example 53, N,3-dimethyl-5-({4-[(1R,5S)-8-(1,2-oxazol-5-ylmethyl)-3,8-diazabicyclo[3.2.1]oct-3-yl]pyrimidin-2-yl}amino)pyridine-2-carboxamide]	> 10000 nM	375 nM	287 nM	24 nM	226 nM	
CNC(=O)c1ncc(Nc2nccc(N3C[C@H]4CC[C@@H](C3)N4C(=O)[C@@H]3CC3(F)F)n2)cc1F [Example 29, 5-({4-[(1R,5S)-8-{[(1S)-2,2-difluorocyclopropyl]carbonyl}-3,8-diazabicyclo[3.2.1]oct-3-yl]pyrimidin-2-yl}amino)-3-fluoro-N-methylpyridine-2-carboxamide]	> 10000 nM	487 nM	118 nM	31 nM		131 nM
O=C([C@@H]1CC1(F)F)N1[C@@H]2CC[C@H]1CN(c1ccnc(Nc3cn[nH]c3)n1)C2 [Example 51, ((1R,5S)-3-(2-((1H-pyrazol-4-yl)amino)pyrimidin-4-yl)-3,8-diazabicyclo[3.2.1]octan-8-yl)((S)-2,2-difluorocyclopropyl)methanone]	8610 nM	97 nM	20 nM		13 nM	
Cc1cc(Nc2nccc(N3C[C@H]4CC[C@@H](C3)N4C(=O)[C@@H]3CC3(F)F)n2)cnc1C(N)=O [Example 35, 5-({4-[(1R,5S)-8-{[(1S)-2,2-difluorocyclopropyl]carbonyl}-3,8-diazabicyclo[3.2.1]oct-3-yl]pyrimidin-2-yl}amino)-3-methylpyridine-2-carboxamide]	> 10000 nM	337 nM	90 nM		170 nM	
CCNC(=O)c1ncc(Nc2nccc(N3C[C@H]4CC[C@@H](C3)N4C(=O)C3CC3)n2)cc1C [Example 14, 5-({4-[(1R,5S)-8-(cyclopropylcarbonyl)-3,8-diazabicyclo[3.2.1]oct-3-yl]pyrimidin-2-yl}amino)-N-ethyl-3-methylpyridine-2-carboxamide]	> 10000 nM		287 nM	79 nM		
Cn1cc(Nc2ncc(F)c(N3C[C@@]4(CO)C[C@@]4(NC(=O)[C@@H]4CC4(F)F)C3)n2)cn1 [Example 109, (1S)-2,2-difluoro-N-[(1S,5S)-3-{5-fluoro-2-[(1-methyl-1H-pyrazol-4-yl)amino]pyrimidin-4-yl}-5-(hydroxymethyl)-3-azabicyclo[3.1.0]hex-1-yl]cyclopropanecarboxamide]	> 10000 nM		507 nM	51 nM	211 nM	
CNC(=O)c1ncc(Nc2nccc(N3C[C@H]4CC[C@@H](C3)N4C(=O)NCC#N)n2)cc1C [Example 90, (1R,5S)—N-(cyanomethyl)-3-(2-{[5-methyl-6-(methylcarbamoyl)pyridin-3-yl]amino}pyrimidin-4-yl)-3,8-diazabicyclo[3.2.1]octane-8-carboxamide]	4170 nM		247 nM		17 nM	
Cn1cc(Nc2nccc(N3C[C@H]4CC[C@@H](C3)N4Cc3cnoc3)n2)cn1 [Example 58, N-(1-methyl-1H-pyrazol-4-yl)-4-[(1R,5S)-8-(1,2-oxazol-4-ylmethyl)-3,8-diazabicyclo[3.2.1]oct-3-yl]pyrimidin-2-amine]	> 10000 nM		158 nM	73 nM	267 nM	
CNC(=O)c1ncc(Nc2nccc(N3C[C@H]4CC[C@@H](C3)N4C(=O)[C@@H]3C[C@H]3F)n2)cc1C [Example 45, 5-({4-[(1R,5S)-8-{[(1S,2R)-2-fluorocyclopropyl]carbonyl}-3,8-diazabicyclo[3.2.1]oct-3-yl]pyrimidin-2-yl}amino)-N,3-dimethylpyridine-2-carboxamide]	7400 nM	100 nM	110 nM		46 nM	
Cn1cc(Nc2nccc(N3C[C@H]4CC[C@@H](C3)N4Cc3ccns3)n2)cn1 [Example 55, N-(1-methyl-1H-pyrazol-4-yl)-4-[(1R,5S)-8-(1,2-thiazol-5-ylmethyl)-3,8-diazabicyclo[3.2.1]oct-3-yl]pyrimidin-2-amine]	8620 nM	221 nM	168 nM		35 nM	
CCn1cc(Nc2nccc(N3C[C@H]4CC[C@@H](C3)N4C(=O)[C@@H]3C[C@H]3C#N)n2)cn1 [Example 24, (1R,2R)-2-{[(1R,5S)-3-{2-[(1-ethyl-1H-pyrazol-4-yl)amino]pyrimidin-4-yl}-3,8-diazabicyclo[3.2.1]oct-8-yl]carbonyl}cyclopropanecarbonitrile]	4990 nM	67 nM	43 nM		13 nM	
